Results published in PubChem BioAssay (NCI).
Where “and” joins values, the source holds several entries; their conditions need not be identical. Equal entries are not always repeated.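 Protocol summary: plate cells (96-well), add compound at 5 concentrations, incubate 48 h, interpolate endpoints linearly. GI50 is the concentration that inhibits growth by half. At the TGI there is no net growth.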 *1 amine or outer side, *2 acyl side, *3 side chain or, on linkers, in order; H or OH if unused. Where a SMILES comes first, the peptide text is derived from it. [ ]: non-standard residue; d: D form. The star is where a group is joined. X12 = NCCCCC(N[*:1])C(=O)CN1CCCC1C(=O)[*:2]; Pentadecanoyl = CCCCCCCCCCCCCCC(=O)*

Experiments:
Assay in all cases: DTP human tumour cell line panel, 48 h
IGROV1 ovarian = tested on: IGROV1 ovarian
PC-3 prostate = tested on: PC-3 prostate
HCC-2998 colon = tested on: HCC-2998 colon
UACC-62 melanoma = tested on: UACC-62 melanoma
SN12C renal = tested on: SN12C renal
SK-MEL-5 melanoma = tested on: SK-MEL-5 melanoma
OVCAR-5 ovarian = tested on: OVCAR-5 ovarian
CCRF-CEM leukemia = tested on: CCRF-CEM leukemia
A498 renal = tested on: A498 renal
OVCAR-3 ovarian = tested on: OVCAR-3 ovarian

SMILES	TGI (IGROV1 ovarian) [µM]	TGI (PC-3 prostate) [µM]	TGI (HCC-2998 colon)	TGI (UACC-62 melanoma)	TGI (SN12C renal) [µM]	TGI (SK-MEL-5 melanoma) [µM]	TGI (OVCAR-5 ovarian) [µM]	TGI (CCRF-CEM leukemia) [µM]	TGI (A498 renal) [µM]	TGI (OVCAR-3 ovarian) [µM]	GI50 (IGROV1 ovarian) [µM]	GI50 (HCC-2998 colon) [µM]	GI50 (SK-MEL-5 melanoma) [µM]	GI50 (OVCAR-5 ovarian) [µM]	GI50 (CCRF-CEM leukemia) [µM]	GI50 (OVCAR-3 ovarian) [µM]	GI50 (A498 renal) [µM]	GI50 (UACC-62 melanoma) [µM]	GI50 (SN12C renal) [µM]
CC1=NNC(N)=N/C1=C\C(Sc1ccc(Cl)cc1)c1ccc(Cl)cc1Cl (centres undefined)	21.9	26.4	17 µM	> 51.9 µM	62.4	40.1	36.7	7.62	42.8										
CC1[C@@H]2C[C@@H]3O[C@@]34[C@H]3CCC5Cc6nc7c(nc6C[C@@]5(C)C3(O)CC(=O)[C@@]24CO[C@]12OC(C)(C)CC2O)CC1CC[C@@H]2C3=C[C@H]4O[C@@]5(O[C@@](C)(CO)C[C@@H]5O)C(C)[C@@]4(O)[C@]3(C)[C@@H](O)CC2[C@]1(C)C7 (some centres undefined)	> 3.52		> 3.52 µM	0.104 µM	> 3.52	> 3.52	0.218	0.0413	0.0643	> 3.52									
Cc1cc(N)c2cc(NC(=O)CCCCCCCCC(=O)Nc3ccc4nc(C)cc(N)c4c3)ccc2n1	> 100		> 82.9 µM	> 100 µM	26.6	> 100	> 100	> 61.3	74	> 100									
COC1OC2COC(c3ccccc3)OC2C(OC(=S)c2ccccc2)C1O (centres undefined)	> 100	74.9		> 100 µM	> 100	> 100	> 100	> 100	> 100	> 100									
O=C(c1cccs1)N(C(=O)N1CCCCC1)c1ccccc1	> 100	> 100		> 100 µM	> 100	> 100		> 100	> 100	> 100									
CC1CC/C(=C\c2ccc(F)cc2)C2=C1C(c1ccc(F)cc1)NC(=S)N2 (centres undefined)	> 100	> 100		> 100 µM	> 100	> 100		> 100	98.7	> 100									
CCCCCCCCCCCCCCC(=O)NC(CCCCN)C(=O)CN1CCCC1C(=O)NCC(=O)NC(Cc1ccccc1)C(=O)N1CCCC1C(=O)NC(CO)C(=O)NC(Cc1ccc(O)cc1)C(=O)NC(CCCCN)C(=O)NC(CC(C)C)C(=O)NC(CCCN=C(N)N)C(=O)N1CCCC1C(=O)NCC(N)=O (centres undefined) (Pentadecanoyl-[X12]GFPSYKLRPG-NH2; configuration not given here)	57.3		35.2 µM			> 100	44.4	32.2	> 100	64.6	19.5	17.7	30.5	18.7	16.8	28	40.6		
CCOC(=O)C1=C(C)N(c2ccc(Cl)cc2)C2(O)C=CC(=O)C3C(=O)N(c4ccccc4)C(=O)C132 (centres undefined)	3.11	3.49		3.63 µM	5.28	3.47	4.15		3.22	2.75									
C[C@@H]1CC(=O)[C@@]2(C)[C@](O)(CCC3O[C@]32C)[C@@]12CC(c1ccoc1)OC2=O (some centres undefined)	> 100	> 100	> 100 µM	> 100 µM		> 100	> 100	59.8	> 100	> 100									
c1ccc(C2C3=C(CCCC3)Nc3nnnn32)cc1 (centres undefined)	> 100	> 100		> 100 µM	> 100	> 100	> 100		> 100	> 100									
S=C1NNC(=S)NN1	> 1	> 1	> 1 µM	> 1 µM	0.354	> 1		> 1	> 1	> 1									
O=C(N(C1=CCCC1)N(c1ccccc1)c1ccccc1)C(F)(F)F		> 100	33.8 µM	> 100 µM	78.7	35.6	> 100	91.8	> 100	44.4									
COc1ccc(-c2nc3ncccn3c2-c2ccc(S(C)(=O)=O)cc2)cc1	> 100	> 100		> 100 µM	> 100	> 100	> 100	> 100		> 100									
NS(=O)(=O)c1ccc(NS(=O)(=O)c2ccc(NC(=O)N(c3ccccc3)c3ccccc3)cc2)cc1	> 100	> 100		> 100 µM	> 100	> 100	> 100	> 100	> 100	50.2									
CN(C)CCSc1nccc(-c2ccc(-c3ccnc(SCCN(C)C)n3)s2)n1	28.8		18.6 µM	29.7 µM	21	31	29.4	17.4	29.6	31.2									
COc1ccc(Cn2nc(OCc3ccccc3)c3cc([N+](=O)[O-])ccc32)cc1	> 100		> 100 µM	> 100 µM	> 100	> 100	> 100	> 100	> 100	> 100									
C/C(=C\c1ccccc1)n1c(=O)cc(C)n1C	> 100	> 100	> 100 µM	> 100 µM	> 100	> 100	> 100	> 100		> 100									
N#Cc1nc(C(=O)c2ccccc2)oc1N	> 100	> 100		> 100 µM	> 100	> 100	> 100	> 100	> 100										
O=c1[nH]c(=O)c2c([nH]1)[nH]c1ccccc12	> 100			> 100 µM	> 100	> 100	> 100	> 100	> 100	> 100									
CCOC(=O)c1sc2[n+](c1C)C(=O)/C(=C/c1ccccc1Cl)S2	23.3	> 85.6		19.3 µM	> 100	1.89	> 62	> 72.8	> 56.8	21.1									
O=S1(=O)OCCOS(=O)(=O)C1S(=O)(=O)c1cccc2ccccc12	> 100	> 100	> 100 µM		> 100	> 100	> 100	> 100		> 100									
COc1cccc2c1C(=O)c1c(O)c3c(c(O)c1C2=O)C[C@@](O)(C(=O)CO)CC3OC1CC(NCCCCC(OC(C)=O)OC(C)=O)C(O)C(C)O1 (some centres undefined)	> 1		0.00495 µM and 0.00577 µM	0.00374 µM and 0.00228 µM	> 1	0.00341	> 1	0.0118	0.0211		0.00355		0.00152		0.000538			0.000655	0.000935
